Assay results reported in patent US20120034613A1, “Apparatus and Method for Testing Relationships Between Gene Expression and Physical Appearance of Skin” (NSE Products, Inc., priority 2010, published 2012).

Test system: EpidermFT™ Skin Model (EFT-400) full thickness skin cultures
Assay: Affymetrix GeneChip HG U133 Plus 2.0 microarray global gene expression, agent-exposed vs untreated skin cultures
Assay type: cell-based, human
Conditions: 24 hr; for Direction / Fold change: Salicin 0.5%
[1] = Salicin 0.5% vs Untreated Control

OCc1ccccc1O[C@@H]1O[C@H](CO)[C@@H](O)[C@H](O)[C@H]1O [Salicin, 2-(Hydroxymethyl)phenyl β-D-glucospyranoside]
Direction (1554602_at RBM8A): up
Fold change (1554602_at RBM8A): 2.141
Direction (1555270_a_at WFS1): up
Fold change (1555270_a_at WFS1): 2.096
Direction (1559477_s_at MEIS1): up
Fold change (1559477_s_at MEIS1): 2.098
Direction (1561042_at ITGB1): up
Fold change (1561042_at ITGB1): 2.151
Direction ABCD3 (202850_at) [1]: down
Direction ABCG4 (207593_at) [1]: down
Direction ACACA (212186_at) [1]: down
Direction ACAD9 (224160_s_at) [1]: down
Direction ACOX3 (204241_at) [1]: down
Direction ADAMTSL4 (226071_at) [1]: down
Direction ADARB1 (203865_s_at) [1]: down
Direction AHNAK (211986_at) [1]: down
Direction AIF1L (223075_s_at) [1]: down
Direction AK1 (202587_s_at) [1]: down
Direction AK3L1 /// AK3L2 (204347_at) [1]: down
Direction ALDH5A1 (203609_s_at) [1]: down
Direction ALOX12 (207206_s_at) [1]: down
Direction AMACR (209426_s_at) [1]: down
Direction AMOTL2 (203002_at) [1]: down
Direction ANK3 (207950_s_at) [1]: down
Direction APPL2 (218218_at) [1]: down
Direction AQP3 (203747_at) [1]: down
Direction ARHGAP27 (225618_at) [1]: down
Direction ARL17 /// ARL17P1 (1555964_at) [1]: down
Direction ARPC1A (200950_at) [1]: down
Direction ASAP3 (222236_s_at) [1]: down
Direction ATP2B4 (212136_at) [1]: down
Direction ATXN3 (205416_s_at) [1]: down
Direction BAIAP2 (205293_x_at) [1]: down
Direction BCL11A (1559078_at) [1]: down
Direction BCL11B (222895_s_at) [1]: down
Direction BICD2 (1553021_s_at) [1]: down
Direction BLCAP (201032_at) [1]: down
Direction C1orf46 (216718_at) [1]: down
Direction C1orf71 (225551_at) [1]: down
Direction C1orf97 (224443_at) [1]: down
Direction C2orf7 (223312_at) [1]: down
Direction C4orf3 (224605_at) [1]: down
Direction C6orf105 (215100_at) [1]: down
Direction C12orf29 (228378_at) [1]: down
Direction C15orf52 (227272_at) [1]: down
Direction C17orf67 (236863_at) [1]: down
Direction C20orf177 (225313_at) [1]: down
Direction CALM1 /// CALM2 /// CALM3 (200653_s_at) [1]: down
Direction CALM1 /// CALM2 /// CALM3 (209563_x_at) [1]: down
Direction CAT (211922_s_at) [1]: down
Direction CENPT (218148_at) [1]: down
Direction CEP76 (52285_f_at) [1]: down
Direction CERK (218421_at) [1]: down
Direction CKB (200884_at) [1]: down
Direction CLCN5 (232127_at) [1]: down
Direction CLDN7 (202790_at) [1]: down
Direction CLIP1 (1558924_s_at) [1]: down
Direction CLN8 (229958_at) [1]: down
Direction CNDP2 (217752_s_at) [1]: down
Direction CNTN1 (211203_s_at) [1]: down
Direction CSNK2A2 (203575_at) [1]: down
Direction CTAGE4 (215549_x_at) [1]: down
Direction CXCL12 (203666_at) [1]: down
Direction CYB5R1 (202263_at) [1]: down
Direction CYCS (244546_at) [1]: down
Direction DBI (211070_x_at) [1]: down
Direction DDR1 (1007_s_at) [1]: down
Direction DDX50 (1568815_a_at) [1]: down
Direction DHRS4 /// DHRS4L2 (218021_at) [1]: down
Direction DMD (203881_s_at) [1]: down
Direction DOPEY2 (205248_at) [1]: down
Direction ELOVL3 (234513_at) [1]: down
Direction EPCAM (201839_s_at) [1]: down
Direction EPHB4 (202894_at) [1]: down
Direction EPHB6 (204718_at) [1]: down
Direction ERI2 (213365_at) [1]: down
Direction F2RL1 (206429_at) [1]: down
Direction FAM33A (225684_at) [1]: down
Direction FAR1 (224865_at) [1]: down
Direction FBXO3 (229955_at) [1]: down
Direction FBXO3 (238686_at) [1]: down
Direction FBXO9 (212991_at) [1]: down
Direction FBXO9 (1559094_at) [1]: down
Direction FIGNL1 (222843_at) [1]: down
Direction FKBP1B (206857_s_at) [1]: down
Direction FKBPL (219187_at) [1]: down
Direction FRAG1 (41858_at) [1]: down
Direction FUCA1 (202838_at) [1]: down
Direction FUT2 (210608_s_at) [1]: down
Direction GAB1 (225998_at) [1]: down
Direction GAS7 (202192_s_at) [1]: down
Direction GDAP1 (226269_at) [1]: down
Direction GNG4 (205184_at) [1]: down
Direction GPR1 (214605_x_at) [1]: down
Direction GPR137B (204137_at) [1]: down
Direction GSN (200696_s_at) [1]: down
Direction HES5 (239230_at) [1]: down
Direction HIGD1A (217845_x_at) [1]: down
Direction HN1 (222396_at) [1]: down
Direction HN1L (212115_at) [1]: down
Direction HSDL2 (209512_at) [1]: down
Direction ID2 (201565_s_at) [1]: down
Direction IDH2 (210045_at) [1]: down
Direction IL22RA1 (220056_at) [1]: down
Direction INPP5D (203332_s_at) [1]: down
Direction ITGA3 (201474_s_at) [1]: down
Direction JAG1 (209099_x_at) [1]: down
Direction JAG1 (216268_s_at) [1]: down
Direction JMJD7 /// JMJD7-PLA2G4B /// PLA2G4B (222256_s_at) [1]: down
Direction KCNK7 (224055_x_at) [1]: down
Direction KCTD15 (222668_at) [1]: down
Direction KIF1B (209234_at) [1]: down
Direction KIF1B (225878_at) [1]: down
